Experimental findings from patent US9255100B2 (BAYER INTELLECTUAL PROPERTY GMBH, priority 2010, dated 2016) are described below.

A value given as a limit tells only on which side of the number the result lay.

In one assay the target is T1, N-terminally GST-tagged human full length recombinant Mps-1 kinase (Homo sapiens, UniProt P33981).
T1 construct: N-terminally GST-tagged human full length recombinant Mps-1 kinase; purchased Invitrogen, Karslruhe, Germany PV4071
T1 sequence (P33981 1-857): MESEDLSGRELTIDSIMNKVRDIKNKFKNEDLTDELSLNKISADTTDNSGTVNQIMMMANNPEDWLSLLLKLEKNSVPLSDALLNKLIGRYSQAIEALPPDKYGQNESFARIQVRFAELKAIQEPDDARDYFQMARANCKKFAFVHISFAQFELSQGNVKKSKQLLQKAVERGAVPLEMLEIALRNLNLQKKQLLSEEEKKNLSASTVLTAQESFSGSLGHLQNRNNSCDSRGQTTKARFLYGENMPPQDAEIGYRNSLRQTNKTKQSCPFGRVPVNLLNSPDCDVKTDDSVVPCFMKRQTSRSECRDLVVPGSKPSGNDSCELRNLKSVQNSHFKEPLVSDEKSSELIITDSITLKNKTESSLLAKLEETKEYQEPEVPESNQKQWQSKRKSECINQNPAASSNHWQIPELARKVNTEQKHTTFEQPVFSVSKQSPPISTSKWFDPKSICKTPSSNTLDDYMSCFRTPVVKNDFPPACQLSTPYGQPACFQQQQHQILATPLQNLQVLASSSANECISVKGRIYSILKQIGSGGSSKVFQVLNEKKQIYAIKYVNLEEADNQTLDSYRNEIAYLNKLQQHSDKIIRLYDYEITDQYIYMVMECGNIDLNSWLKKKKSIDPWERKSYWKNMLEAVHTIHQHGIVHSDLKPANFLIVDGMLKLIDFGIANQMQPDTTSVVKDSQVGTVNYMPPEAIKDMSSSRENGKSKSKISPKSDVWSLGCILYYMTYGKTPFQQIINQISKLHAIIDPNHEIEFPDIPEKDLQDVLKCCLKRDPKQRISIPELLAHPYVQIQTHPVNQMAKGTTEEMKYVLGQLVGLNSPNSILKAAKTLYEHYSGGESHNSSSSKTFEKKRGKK
The experiment in a line: Mps-1 kinase assay (TR-FRET). Type of assay: biochemical. The settings on record: 10 μM ATP, 1 μM peptide substrate, 60 min at 22° C., read-out: Mps1 IC50. A digest of the protocol: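 TR-FRET signal between a Europium anti-phospho-Ser/Thr antibody and streptavidin-XLent reported phosphorylation of a biotinylated peptide by GST-tagged full-length Mps-1. Enzyme was near 1 nM final, chosen per lot for linearity.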
As to `Cc1cc(-c2cnc3c(NCC4CC[S+]([O-])CC4)cc(Oc4ccc(F)cc4)nn23)ccc1C(=O)NC1CC1` (mixture of isomers) [Example 295B, N-cyclopropyl-4-[6-(4-fluorophenoxy)-8-({[(cis/trans)-1-oxidotetrahydro-2H-thiopyran-4-yl]methyl}amino)imidazo[1,2-b]pyridazin-3-yl]-2-methylbenzamide], the IC50 came out at 0.2 nM.

Still in this assay, the particulars now being: Mps1 IC50 [nM], 10 μM ATP, 1 μM peptide substrate, 60 min at 22° C.
`C/C=C(\C)c1cc(NCCC(F)(F)F)c2ncc(-c3ccc(-c4cnc(C5CC5)[nH]4)cc3)n2n1` [Example 27, 6-[(2E)-But-2-en-2-yl]-3-[4-(2-cyclopropyl-1H-imidazol-5-yl)phenyl]-N-(3,3,3-trifluoropropyl)imidazo[1,2-b]pyridazin-8-amine]: the concentration for half-maximal inhibition (IC50) came to 33.2 nM.
Regarding `Cc1cc(-c2cnc3c(NC[C@H]4CCCO4)cc(-c4ccncc4)nn23)ccc1C(=O)NC1CC1` [Example 35, N-cyclopropyl-2-methyl-4-[6-(pyridin-4-yl)-8-{[(2R)-tetrahydrofuran-2-ylmethyl]amino}imidazo[1,2-b]pyridazin-3-yl]benzamide], the IC50 came to 2.5 nM.
Consider `Cc1cc(-c2cnc3c(NCC(C)(C)O)cc(Oc4ccc(OC(C)C)cc4)nn23)ccc1C(=O)NC1CC1` [Example 256, N-cyclopropyl-4-{8-[(2-hydroxy-2-methylpropyl)amino]-6-(4-isopropoxyphenoxy)imidazo[1,2-b]pyridazin-3-yl}-2-methylbenzamide], for which the IC50 came to 0.2 nM.
`CNc1ccccc1Oc1cc(NC)c2ncc(-c3ccc(C(=O)NC4CC4)c(C)c3)n2n1` [Example 531, N-cyclopropyl-2-methyl-4-{8-(methylamino)-6-[2-(methylamino)phenoxy]imidazo[1,2-b]pyridazin-3-yl} benzamide]: the IC50 was found to be 14.8 nM.
With `Cc1cc(-c2cnc3c(NCC4CCS(=O)(=O)C4)cc(Oc4cccc(F)c4)nn23)ccc1C(=O)NC1CC1` (stereo not drawn) [Example 327, N-cyclopropyl-4-[8-{[(1,1-dioxidotetrahydro-thiophen-3-yl)methyl]amino}-6-(3-fluorophenoxy)imidazo[1,2-b]pyridazin-3-yl]-2-methylbenzamide], the concentration for half-maximal inhibition (IC50) was 0.3 nM.
Turning to `Cc1cc(-c2cnc3c(NCC(C)(C)O)cc(Sc4nncn4C)nn23)ccc1C(=O)NC1CC1` [Example 413, N-cyclopropyl-4-{8-[(2-hydroxy-2-methylpropyl)amino]-6-[(4-methyl-4H-1,2,4-triazol-3-yl)sulfanyl]imidazo[1,2-b]pyridazin-3-yl}-2-methylbenzamide], the IC50 came out at 45.7 nM.
On to `CCNC(=O)c1ccc(-c2cnc3c(NCC4CCOCC4)cc(Oc4ccc(F)c(F)c4)nn23)cc1C` [Example 594, 4-{6-(3,4-difluorophenoxy)-8-[(tetrahydro-2H-pyran-4-ylmethyl)amino]imidazo[1,2-b]pyridazin-3-yl}-N-ethyl-2-methylbenzamide], for which the IC50 was below 10 nM.
As to `CC(C)CNc1cc(-c2cccc(CO)c2)nn2c(-c3ccc(C(=O)NC4CC4)cc3)cnc12` [Example 103, N-cyclopropyl-4-{6-[3-(hydroxymethyl)phenyl]-8-[(2-methylpropyl)amino]imidazo[1,2-b]pyridazin-3-yl}benzamide], the IC50 was below 1 nM.
For the molecule `Cc1cc(-c2cnc3c(NCCO)cc(Oc4cccc(F)c4)nn23)ccc1C(=O)NC1CC1` [Example 277, N-cyclopropyl-4-{6-(3-fluorophenoxy)-8-[(2-hydroxyethyl)amino]imidazo[1,2-b]pyridazin-3-yl}-2-methylbenzamide], the IC50 is below 0.1 nM.
On the same count and under the same terms, in the case of `Cc1cc(-c2cnc3c(NCC(C)(C)O)cc(-c4ccc(F)cc4)nn23)ccc1C(=O)NC1CC1` [Example 7, N-cyclopropyl-4-{6-(4-fluorophenyl)-8-[(2-hydroxy-2-methylpropyl)amino]imidazo[1,2-b]pyridazin-3-yl}-2-methylbenzamide] it was 1.2 nM; in that of `Cc1cc(-c2cnc3c(NCC(C)(C)O)cc(Oc4ccn[nH]4)nn23)ccc1C(=O)NC1CC1` [Example 414, N-cyclopropyl-4-{8-[(2-hydroxy-2-methylpropyl)amino]-6-(1H-pyrazol-5-yloxy)imidazo[1,2-b]pyridazin-3-yl}-2-methylbenzamide], 6.7 nM.
Same read-out and setting: in the case of `Cc1ccc(F)cc1Oc1cc(NCC2CNC2)c2ncc(-c3ccc(C(=O)NC4CC4)c(C)c3)n2n1` [Example 545, 4-{8-[(azetidin-3-ylmethyl)amino]-6-(5-fluoro-2-methylphenoxy)imidazo[1,2-b]pyridazin-3-yl}-N-cyclopropyl-2-methylbenzamide] it was 0.1 nM; in that of `CCNC(=O)c1ccc(-c2cnc3c(NCCC(F)(F)F)cc(Oc4cc(F)ccc4C)nn23)cc1C` [Example 603, N-ethyl-4-{6-(5-fluoro-2-methylphenoxy)-8-[(3,3,3-trifluoropropyl)a-mino]imidazo[1,2-b]pyridazin-3-yl}-2-methylbenzamide], below 1 nM; in that of `Cc1cc(-c2cnc3c(NCC(C)(C)O)cc(-c4cccc(CO)c4)nn23)ccc1C(=O)NC1CC1` [Example 153, N-cyclopropyl-4-{6-[3-(hydroxymethyl)phenyl]-8-[(2-hydroxy-2-methylpropyl)amino]imidazo[1,2-b]pyridazin-3-yl}-2-methylbenzamide], 3.6 nM.
On the same count and under the same terms, in the case of `CC(C)(O)CNc1cc(Sc2cccc(F)c2)nn2c(-c3ccc(C(=O)NC4CC4)cc3O)cnc12` [Example 62A, N-cyclopropyl-4-{6-[(3-fluorophenyl)sulfanyl]-8-[(2-hydroxy-2-methylpropyl)amino]imidazo[1,2-b]pyridazin-3-yl}-3-hydroxybenzamide] it was 0.2 nM; in that of `Cc1cc(-c2cnc3c(NC[C@H]4CC[S@+]([O-])CC4)cc(Oc4cccnc4)nn23)ccc1C(=O)NC1CC1` [Example 296C, N-cyclopropyl-2-methyl-4-[8-({[(trans)-1-oxidotetrahydro-2H-thiopyran-4-yl]methyl}amino)-6-(pyridin-3-yloxy)imidazo[1,2-b]pyridazin-3-yl]benzamide], 0.2 nM; in that of `CC(C)CNc1cc(-c2cccc3ccccc23)nn2c(-c3ccc(C(=O)NC4CC4)cc3)cnc12` [Example 102, N-cyclopropyl-4-{8-[(2-methylpropyl)amino]-6-(naphthalen-1-yl)imidazo[1,2-b]pyridazin-3-yl}benzamide], 24.6 nM.
In the case of `Cc1cc(-c2cnc3c(NCC(C)C)cc(-c4ccn[nH]4)nn23)ccc1C(=O)NC1CC1` [Example 195, N-cyclopropyl-2-methyl-4-{8-[(2-methylpropyl)amino]-6-(1H-pyrazol-5-yl)imidazo[1,2-b]pyridazin-3-yl}benzamide], the IC50 is 3.2 nM.
The same measure, in the same setting: in the case of `CNC(=O)c1ccc(-c2cnc3c(NCC4CCOCC4)cc(Oc4cc(F)ccc4C)nn23)cc1C` [Example 572, 4-{6-(5-fluoro-2-methylphenoxy)-8-[(tetrahydro-2H-pyran-4-ylmethyl)amino]imidazo[1,2-b]pyridazin-3-yl}-N,2-dimethylbenzamide] it was below 1 nM; in that of `Cc1cc(-c2cnc3c(NCC(C)(C)N)cc(-c4ccc(F)cc4)nn23)ccc1C(=O)NC1CC1` [Example 57, 4-{8-[(2-Amino-2-methylpropyl)amino]-6-(4-fluorophenyl)imidazo[1,2-b]pyridazin-3-yl}-N-cyclopropyl-2-methylbenzamide], 4.4 nM.
Still for that read-out and setting: the result for `Cc1cc(-c2cnc3c(NCCC(F)(F)F)cc(N4CCCc5cccc(O)c54)nn23)ccc1C(=O)NC1CC1` [Example 467, N-cyclopropyl-4-{6-(8-hydroxy-3,4-dihydro-quinolin-1(2H)-yl)-8-[(3,3,3-trifluoropropyl)amino]imidazo[1,2-b]pyridazin-3-yl}-2-methyl-benzamide] reads 1.6 nM; that for `Cc1cc(-c2cnc3c(NCC(C)(C)O)cc(Sc4ccc(O)cc4)nn23)ccc1C(=O)NC1CC1` [Example 60A, N-cyclopropyl-4-{8-[(2-hydroxy-2-methylpropyl)amino]-6-[(4-hydroxyphenyl)sulfanyl]imidazo[1,2-b]pyridazin-3-yl}-2-methylbenzamide], 0.2 nM; that for `Cc1cc(-c2cnc3c(NCC(C)(C)O)cc(Nc4ccc(CCN)cc4)nn23)ccc1C(=O)NC1CC1` [Example 435, 4-(6-{[4-(2-aminoethyl)phenyl]amino}-8-[(2-hydroxy-2-methylpropyl)amino]imidazo[1,2-b]pyridazin-3-yl)-N-cyclopropyl-2-methylbenzamide], 1.6 nM.
